Reference: patent US4182896A, “Indane derivatives” (Societe Hexachimie, priority 1974, dated 1980)
Counter-ions that a name gives are not always drawn.

What was measured:
[1] = tested on: SPF male rats, OFA strain; test: Anti-inflammatory activity: paw swelling after subcutaneous plantar injection of carraghenine, oral administration; type: in vivo; settings: Rattus norvegicus, po; for inhibition in vivo at 64 mg/kg: 64 mg/kg oral; for inhibition in vivo at 128 mg/kg: 128 mg/kg oral; for inhibition in vivo at 256 mg/kg: 256 mg/kg oral; for ED50: at the moment of greatest swelling of the controls, read-out: ED50 (50% effective dose), anti-inflammatory; for inhibition in vivo at 16 mg/kg: 16 mg/kg oral; for inhibition in vivo at 32 mg/kg: 32 mg/kg oral
Method: Anti-inflammatory activity
The products to be tested are administered orally to batches of 12 SPF male rats, OFA strain, weighing 120-130 g, 2 hours and 30 minutes (1/2 dose each time) before the subcutaneous plantar injection of 0.05 ml of a 1% strength solution of carraghenine. The volume of the back paw which received the phlogogenic agent is measured at regular intervals. The 50% effective dose is calculated at the moment of greatest swelling of the controls.
The results are given in Tables I to IV below, in which the percentage reduction in the inflammation is noted.

[2] = tested on: male mice (SPF1, OF1 strain); test: Analgesic activity: inhibition of pain reactions (abdominal twistings) after intraperitoneal phenylbenzoquinone, oral administration; type: in vivo; settings: Mus musculus, po; for inhibition in vivo at 16 mg/kg: 16 mg/kg oral; for inhibition in vivo at 32 mg/kg: 32 mg/kg oral; for inhibition in vivo at 64 mg/kg: 64 mg/kg oral; for inhibition in vivo at 128 mg/kg: 128 mg/kg oral; for inhibition in vivo at 256 mg/kg: 256 mg/kg oral; for ED50: read-out: ED50 (50% effective dose), analgesic; for inhibition in vivo at 8 mg/kg: 8 mg/kg oral
Method: The products tested are administered orally to batches of 6 male mice (SPF1, OF1 strain) weighing 19-20 g.
1 hour later, 0.3 ml of a 0.02% strength solution of phenylbenzoquinone is injected intraperitoneally into each mouse and, from the 5th to the 10th minute after the latter treatment, the number of pain reactions (abdominal twistings) is counted.
Table V to VIII below give the percentage inhibition of these reactions.

Solubility in water = type: physicochemical; settings: white powder, sodium salt
[3] = carraghenine, read-out: percentage reduction in the inflammation
[4] = read-out: percentage inhibition of pain reactions

solubility in water (Solubility in water)	SMILES	inhibition in vivo at 64 mg/kg [1, 3] [%]	inhibition in vivo at 128 mg/kg [1, 3] [%]	inhibition in vivo at 256 mg/kg [1, 3] [%]	ED50 [1] [mg/kg]	inhibition in vivo at 16 mg/kg [2, 4] [%]	inhibition in vivo at 32 mg/kg [2, 4] [%]	inhibition in vivo at 64 mg/kg [2, 4] [%]	inhibition in vivo at 128 mg/kg [2, 4] [%]	inhibition in vivo at 256 mg/kg [2, 4] [%]	ED50 [2] [mg/kg]	inhibition in vivo at 16 mg/kg [1, 3] [%]	inhibition in vivo at 32 mg/kg [1, 3] [%]	inhibition in vivo at 512 mg/kg ([1]; 512 mg/kg oral, carraghenine, read-out: percentage reduction in the inflammation) [%]	inhibition in vivo at 8 mg/kg [2, 4] [%]	inhibition in vivo at 2 mg/kg ([2]; 2 mg/kg oral, read-out: percentage inhibition of pain reactions) [%]	inhibition in vivo at 4 mg/kg ([2]; 4 mg/kg oral, read-out: percentage inhibition of pain reactions) [%]
soluble in water	CC1CC(C)c2cc(C(C)C(=O)O)ccc21 (centres unmarked) [Example 6, Sodium salt of 2-methyl-[1,3-dimethyl-indanyl-(5)]-acetic acid]	16	39	44	> 256	28	41	59	78	72	40						
soluble in water	CC1Cc2ccc(C(C)C(=O)O)cc2C1 (centres unmarked) [Example 15, Sodium salt of 2-methyl-[2-methyl-indanyl-(5)]-acetic acid]	27	41	68	160	18	68	91			23	11	20	72	14		
soluble in water	CC(C(=O)O)c1ccc2c(c1)CC(C(C)C)C2 (centres unmarked) [Example 31, Sodium salt of 2-methyl-[2-isopropyl-indanyl-(5)]-acetic acid]																
	CCC1Cc2ccc(C(C)C(=O)O)cc2C1 (centres unmarked) [Example 18, 2-Methyl-[2-ethyl-indanyl-(5)]-acetic acid]	61	66	77	36	75	95				6.5	31	54		58	18	27
	CC1CC(C)c2cc(CC(=O)O)ccc21 (centres unmarked) [Example 1, [1,3-Dimethyl-indanyl-(5)]-acetic acid]	15	42	88	130	25	28	67	89	94	43						
